# *1 amine or outer side, *2 acyl side, *3 side chain or, on linkers, in order; H or OH if unused. Where a SMILES comes first, the peptide text is derived from it. [ ]: non-standard residue; d: D form. Trp(4-Cl)(βS-Me) = C[C@@H](c1c[nH]c2cccc(Cl)c12)[C@H](N)C(=O)O; Bip(4'-COOH) = N[C@@H](Cc1ccc(-c2ccc(C(=O)O)cc2)cc1)C(=O)O; Phe(3-CH2NH2) = O=C([C@H](Cc1cccc(CN[*:3])c1)N[*:1])[*:2]; Phe(4-COOH) = N[C@@H](Cc1ccc(C(=O)O)cc1)C(=O)O; Phe(3-NH2) = Nc1cccc(C[C@H](N)C(=O)O)c1; Pro(4R-NH2) = N[C@H]1CN[C@H](C(=O)O)C1; hTyr = N[C@@H](CCc1ccc(O)cc1)C(=O)O; dDab = NCC[C@@H](N)C(=O)O; Orn = NCCC[C@H](N)C(=O)O; dNMeA = CN[C@H](C)C(=O)O; Dap = NC[C@H](N)C(=O)O
# Molecular target: T1, Recombinant human IL-1β (Homo sapiens, UniProt P01584)
# T1 construct: purchased BioLegend 579404
# Assay: IL-6 assay in MRC5 cells: inhibition of IL-1β induced IL-6 secretion (AlphaLISA)
# Assay type: cell-based
# Settings: inhibition of IL-1β induced IL-6 secretion in MRC5 cells; IL-1β pre-incubated 1 hour with compound; read-out: MRC5 IC50
# How it was run: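 IL-1β at 2×EC80 in seeding medium (EMEM, 0.025% BSA) preincubated 1 h at ambient temperature with compound, then 3000 MRC5 cells/well added and incubated overnight at 37 °C, 5% CO2. IL-6 in conditioned medium quantified by AlphaLISA; IC50 from 4-parameter logistic fit.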
# T1 sequence (P01584 117-269): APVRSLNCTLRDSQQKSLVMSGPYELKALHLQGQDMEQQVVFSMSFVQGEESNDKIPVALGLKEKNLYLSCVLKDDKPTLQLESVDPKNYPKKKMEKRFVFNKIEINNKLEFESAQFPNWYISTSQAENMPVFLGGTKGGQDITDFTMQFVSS
row,Compound,IC50 [nM]
1,CC(C)C[C@@H]1NC(=O)[C@H](CCCCN)NC(=O)[C@H](Cc2ccc(-c3ccc(C(=O)O)cc3)cc2)NC(=O)CNC(=O)[C@@H](C)N(C)C(=O)[C@H](CC(=O)O)NC(=O)[C@H]([C@@H](C)c2c[nH]c3cccc(Cl)c23)NC(=O)[C@@H]2C[C@@H](N)CN2C(=O)CNC(=O)[C@H](Cc2ccc(C(=O)O)cc2)NC(=O)[C@H](Cc2c[nH]c3ccccc23)NC(=O)[C@H](Cc2ccc(-c3ccc(C(=O)O)cc3)cc2)NC(=O)[C@H](CCc2ccc(O)cc2)NC(=O)[C@@H](CCN)NC1=O [Example 43] (cyclo([Bip(4'-COOH)]W[Phe(4-COOH)]G[Pro(4R-NH2)][Trp(4-Cl)(βS-Me)]D[dNMeA]G[Bip(4'-COOH)]KL[dDab][hTyr])),0.244
2,C[C@@H]1C(=O)NCC(=O)N[C@@H](Cc2ccc(-c3ccc(C(=O)O)cc3)cc2)C(=O)N[C@@H](CCCCN)C(=O)N[C@@H](CO)C(=O)N[C@H](CCN)C(=O)N[C@@H](CCc2ccc(O)cc2)C(=O)N[C@@H](Cc2ccc(-c3ccc(C(=O)O)cc3)cc2)C(=O)N[C@@H](Cc2c[nH]c3ccccc23)C(=O)N[C@@H](Cc2ccc(C(=O)O)cc2)C(=O)NCC(=O)N2C[C@H](N)C[C@H]2C(=O)N[C@@H]([C@@H](C)c2c[nH]c3cccc(Cl)c23)C(=O)N[C@@H](CC(=O)O)C(=O)N1C [Example 46] (cyclo([Bip(4'-COOH)]W[Phe(4-COOH)]G[Pro(4R-NH2)][Trp(4-Cl)(βS-Me)]D[dNMeA]G[Bip(4'-COOH)]KS[dDab][hTyr])),0.134
3,C[C@@H]1C(=O)NCC(=O)N[C@@H](Cc2ccc(-c3ccc(C(=O)O)cc3)cc2)C(=O)N[C@@H](Cc2cccc(CN)c2)C(=O)N[C@@H](CO)C(=O)N[C@H](C)C(=O)N[C@@H](CCc2ccc(O)cc2)C(=O)N[C@@H](Cc2ccc(-c3ccc(C(=O)O)cc3)cc2)C(=O)N[C@@H](Cc2c[nH]c3ccccc23)C(=O)N[C@@H](Cc2ccc(C(=O)O)cc2)C(=O)NCC(=O)N2C[C@H](N)C[C@H]2C(=O)N[C@@H]([C@@H](C)c2c[nH]c3cccc(Cl)c23)C(=O)N[C@@H](CC(=O)O)C(=O)N1C [Example 48] (cyclo([Bip(4'-COOH)]W[Phe(4-COOH)]G[Pro(4R-NH2)][Trp(4-Cl)(βS-Me)]D[dNMeA]G[Bip(4'-COOH)][Phe(3-CH2NH2)]S[dA][hTyr])),0.041
4,C[C@@H]1C(=O)NCC(=O)N[C@@H](Cc2ccc(-c3ccc(C(=O)O)cc3)cc2)C(=O)N[C@@H](Cc2cccc(N)c2)C(=O)N[C@@H](CO)C(=O)N[C@H](C)C(=O)N[C@@H](CCc2ccc(O)cc2)C(=O)N[C@@H](Cc2ccc(-c3ccc(C(=O)O)cc3)cc2)C(=O)N[C@@H](Cc2c[nH]c3ccccc23)C(=O)N[C@@H](Cc2ccc(C(=O)O)cc2)C(=O)NCC(=O)N2C[C@H](N)C[C@H]2C(=O)N[C@@H]([C@@H](C)c2c[nH]c3cccc(Cl)c23)C(=O)N[C@@H](CC(=O)O)C(=O)N1C [Example 50] (cyclo([Bip(4'-COOH)]W[Phe(4-COOH)]G[Pro(4R-NH2)][Trp(4-Cl)(βS-Me)]D[dNMeA]G[Bip(4'-COOH)][Phe(3-NH2)]S[dA][hTyr])),0.52

# Second part, the compound after the results:
row,IC50 [nM],Compound
1,0.469,C[C@@H]1C(=O)NCC(=O)N[C@@H](Cc2ccc(-c3ccc(C(=O)O)cc3)cc2)C(=O)N[C@@H](CN)C(=O)N[C@@H](CO)C(=O)N[C@H](C)C(=O)N[C@@H](CCc2ccc(O)cc2)C(=O)N[C@@H](Cc2ccc(-c3ccc(C(=O)O)cc3)cc2)C(=O)N[C@@H](Cc2c[nH]c3ccccc23)C(=O)N[C@@H](Cc2ccc(C(=O)O)cc2)C(=O)NCC(=O)N2C[C@H](N)C[C@H]2C(=O)N[C@@H]([C@@H](C)c2c[nH]c3cccc(Cl)c23)C(=O)N[C@@H](CC(=O)O)C(=O)N1C [Example 41] (cyclo([Bip(4'-COOH)]W[Phe(4-COOH)]G[Pro(4R-NH2)][Trp(4-Cl)(βS-Me)]D[dNMeA]G[Bip(4'-COOH)][Dap]S[dA][hTyr]))
2,0.627,CC(C)C[C@@H]1NC(=O)[C@H](CCCCN)NC(=O)[C@H](Cc2ccc(-c3ccc(C(=O)O)cc3)cc2)NC(=O)CNC(=O)[C@@H](C)N(C)C(=O)[C@H](CC(=O)O)NC(=O)[C@H]([C@@H](C)c2c[nH]c3cccc(Cl)c23)NC(=O)[C@@H]2C[C@@H](N)CN2C(=O)CNC(=O)[C@H](Cc2ccc(C(=O)O)cc2)NC(=O)[C@H](Cc2c[nH]c3ccccc23)NC(=O)[C@H](Cc2ccc(-c3ccc(C(=O)O)cc3)cc2)NC(=O)[C@H](CCc2ccc(O)cc2)NC(=O)[C@@H](C)NC1=O [Example 42] (cyclo([Bip(4'-COOH)]W[Phe(4-COOH)]G[Pro(4R-NH2)][Trp(4-Cl)(βS-Me)]D[dNMeA]G[Bip(4'-COOH)]KL[dA][hTyr]))
3,0.132,CC(C)C[C@@H]1NC(=O)[C@H](CCCCN)NC(=O)[C@H](Cc2ccc(-c3ccc(C(=O)O)cc3)cc2)NC(=O)CNC(=O)[C@@H](C)N(C)C(=O)[C@H](CC(=O)O)NC(=O)[C@H]([C@@H](C)c2c[nH]c3cccc(Cl)c23)NC(=O)[C@@H]2C[C@@H](N)CN2C(=O)CNC(=O)[C@H](Cc2ccc(C(=O)O)cc2)NC(=O)[C@H](Cc2c[nH]c3ccccc23)NC(=O)[C@H](Cc2ccc(-c3ccc(C(=O)O)cc3)cc2)NC(=O)[C@H](CCc2ccc(O)cc2)NC(=O)[C@@H](CO)NC1=O [Example 44] (cyclo([Bip(4'-COOH)]W[Phe(4-COOH)]G[Pro(4R-NH2)][Trp(4-Cl)(βS-Me)]D[dNMeA]G[Bip(4'-COOH)]KL[dS][hTyr]))
4,0.174,C[C@@H]1C(=O)NCC(=O)N[C@@H](Cc2ccc(-c3ccc(C(=O)O)cc3)cc2)C(=O)N[C@@H](CCCCN)C(=O)N[C@@H](CO)C(=O)N[C@H](C)C(=O)N[C@@H](CCc2ccc(O)cc2)C(=O)N[C@@H](Cc2ccc(-c3ccc(C(=O)O)cc3)cc2)C(=O)N[C@@H](Cc2c[nH]c3ccccc23)C(=O)N[C@@H](Cc2ccc(C(=O)O)cc2)C(=O)NCC(=O)N2C[C@H](N)C[C@H]2C(=O)N[C@@H]([C@@H](C)c2c[nH]c3cccc(Cl)c23)C(=O)N[C@@H](CC(=O)O)C(=O)N1C [Example 45] (cyclo([Bip(4'-COOH)]W[Phe(4-COOH)]G[Pro(4R-NH2)][Trp(4-Cl)(βS-Me)]D[dNMeA]G[Bip(4'-COOH)]KS[dA][hTyr]))
5,0.123,C[C@@H]1C(=O)NCC(=O)N[C@@H](Cc2ccc(-c3ccc(C(=O)O)cc3)cc2)C(=O)N[C@@H](CCCCN)C(=O)N[C@@H](CO)C(=O)N[C@H](CO)C(=O)N[C@@H](CCc2ccc(O)cc2)C(=O)N[C@@H](Cc2ccc(-c3ccc(C(=O)O)cc3)cc2)C(=O)N[C@@H](Cc2c[nH]c3ccccc23)C(=O)N[C@@H](Cc2ccc(C(=O)O)cc2)C(=O)NCC(=O)N2C[C@H](N)C[C@H]2C(=O)N[C@@H]([C@@H](C)c2c[nH]c3cccc(Cl)c23)C(=O)N[C@@H](CC(=O)O)C(=O)N1C [Example 47] (cyclo([Bip(4'-COOH)]W[Phe(4-COOH)]G[Pro(4R-NH2)][Trp(4-Cl)(βS-Me)]D[dNMeA]G[Bip(4'-COOH)]KS[dS][hTyr]))
6,0.402,C[C@@H]1C(=O)NCC(=O)N[C@@H](Cc2ccc(-c3ccc(C(=O)O)cc3)cc2)C(=O)N[C@@H](CCCN)C(=O)N[C@@H](CO)C(=O)N[C@H](C)C(=O)N[C@@H](CCc2ccc(O)cc2)C(=O)N[C@@H](Cc2ccc(-c3ccc(C(=O)O)cc3)cc2)C(=O)N[C@@H](Cc2c[nH]c3ccccc23)C(=O)N[C@@H](Cc2ccc(C(=O)O)cc2)C(=O)NCC(=O)N2C[C@H](N)C[C@H]2C(=O)N[C@@H]([C@@H](C)c2c[nH]c3cccc(Cl)c23)C(=O)N[C@@H](CC(=O)O)C(=O)N1C [Example 49] (cyclo([Bip(4'-COOH)]W[Phe(4-COOH)]G[Pro(4R-NH2)][Trp(4-Cl)(βS-Me)]D[dNMeA]G[Bip(4'-COOH)][Orn]S[dA][hTyr]))
